Reference: patent US20210363483A1, “METHOD FOR PRODUCING CULTURED CELL, AND METHOD FOR PRODUCING THERAPEUTIC AGENT FOR SPINAL CORD INJURY DISEASE” (REGENESIS SCIENCE CO., LTD., priority 2017, published 2021)

Tested on: GDNF mRNA
Assay: GDNF mRNA expression by real-time PCR in cultured human skin-derived stem cells
Assay type: cell-based
Method: To find a compound or cytokine to increase the expression of GDNF in cells, following 6 candidate materials were examined: Valproic Acid (VA), Platelet-Derived Growth Factor (PDGF), SAG (or Purmorphamine or rh-Sonic Hedgehog (PeproTech)), Bone Morphogenic Protein 4 (BMP4). These 6 materials were added to 7 wells, which had reached to confluence in Example 1, in the following combinations: (1) Control (not added) (2) VA (1 uM), (3) VA (1 uM)+PDGF (long/ml), (4) VA (1 uM)+SAG (0.3 uM), (5) PDGF (long/ml), (6) SAG (0.3 uM), (7) […] (long/ml). 72 hours after the addition, total RNA was extracted from each well by TRIzol method. Using “ReverTra Ace (trade mark) qPCR RT kit”, a cDNA synthesis kit for PCR, 0.5 ug of each total RNA was added to 10 μL of ReverTra Ace (trade mark) qPCR RT kit to synthesize respective cDNA. […]
PCR was performed by three-step method under the conditions of annealing 60° C./elongation 72° C. and the steps (1) to (2) were repeated for 40 cycles. In the last step, a Melting Curve was analyzed and it was confirmed that no primer dimer was produced. […]

| SMILES | expression of GDNF mRNA (GDNF mRNA/GAPDH mRNA) compared with control (Purmorphamine 1.5 uM used in place of SAG) [times] | expression of GDNF mRNA (GDNF mRNA/GAPDH mRNA) compared with control (SAG 0.3 uM, 72 hours after addition) |
| --- | --- | --- |
| c1ccc2c(Oc3nc(Nc4ccc(N5CCOCC5)cc4)c4ncn(C5CCCCC5)c4n3)cccc2c1 [Purmorphamine, 9-Cyclohexyl-N-[4-(4-morpholinyl)phenyl]-2-(1-naphthalenyloxy)-9H-purin-6-amine] | ~10 | – |
| CNC1CCC(N(Cc2cccc(-c3ccncc3)c2)C(=O)c2sc3ccccc3c2Cl)CC1 (centres unmarked) [SAG, N-Methyl-N′-(3-pyridinylbenzyl)-N′-(3-chlorobenzo[b]thiophene-2-carbonyl)-1,4-diaminocyclohexane] | – | more than 10 times |
